Source: ChEMBL document CHEMBL1149398, “Pyrrolizidine esters and amides as 5-HT4 receptor agonists and antagonists” (J Med Chem, 2006)

Key:
[1] = Binding affinity to 5HT1 receptor
[2] = biological target: T1, Adrenergic receptor alpha-1 (Homo sapiens, UniProt P35348+P25100+P35368); assay: Binding affinity to adrenergic alpha-1 receptor; type: protein assay
T1 sequence (P35348 whole entry): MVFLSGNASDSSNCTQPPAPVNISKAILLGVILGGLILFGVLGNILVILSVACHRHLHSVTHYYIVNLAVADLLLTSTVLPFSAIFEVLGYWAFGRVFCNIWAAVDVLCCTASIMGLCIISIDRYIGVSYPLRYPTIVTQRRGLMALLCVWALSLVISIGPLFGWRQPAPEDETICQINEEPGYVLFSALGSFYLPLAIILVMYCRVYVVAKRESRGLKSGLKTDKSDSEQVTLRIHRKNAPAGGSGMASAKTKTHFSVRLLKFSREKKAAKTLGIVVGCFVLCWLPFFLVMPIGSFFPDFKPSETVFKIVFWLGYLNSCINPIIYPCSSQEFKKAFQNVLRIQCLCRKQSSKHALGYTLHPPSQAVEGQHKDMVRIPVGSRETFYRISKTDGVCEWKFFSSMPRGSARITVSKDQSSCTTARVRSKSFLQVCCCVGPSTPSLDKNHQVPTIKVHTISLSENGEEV
T1 sequence (P25100 whole entry): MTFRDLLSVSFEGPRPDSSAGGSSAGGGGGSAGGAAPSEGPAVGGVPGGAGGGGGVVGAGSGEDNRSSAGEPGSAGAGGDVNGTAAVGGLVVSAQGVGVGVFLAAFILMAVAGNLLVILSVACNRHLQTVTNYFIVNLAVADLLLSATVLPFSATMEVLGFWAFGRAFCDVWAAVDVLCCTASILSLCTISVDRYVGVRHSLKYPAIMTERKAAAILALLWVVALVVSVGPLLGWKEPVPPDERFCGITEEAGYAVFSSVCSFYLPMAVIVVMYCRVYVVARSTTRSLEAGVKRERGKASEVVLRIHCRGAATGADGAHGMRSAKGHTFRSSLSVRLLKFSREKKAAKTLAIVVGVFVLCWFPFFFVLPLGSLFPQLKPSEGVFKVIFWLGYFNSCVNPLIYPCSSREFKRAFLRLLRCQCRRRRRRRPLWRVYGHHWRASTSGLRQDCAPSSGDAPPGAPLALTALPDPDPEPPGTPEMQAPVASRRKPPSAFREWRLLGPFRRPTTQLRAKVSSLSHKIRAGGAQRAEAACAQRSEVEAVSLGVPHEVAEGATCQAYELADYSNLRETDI
T1 sequence (P35368 whole entry): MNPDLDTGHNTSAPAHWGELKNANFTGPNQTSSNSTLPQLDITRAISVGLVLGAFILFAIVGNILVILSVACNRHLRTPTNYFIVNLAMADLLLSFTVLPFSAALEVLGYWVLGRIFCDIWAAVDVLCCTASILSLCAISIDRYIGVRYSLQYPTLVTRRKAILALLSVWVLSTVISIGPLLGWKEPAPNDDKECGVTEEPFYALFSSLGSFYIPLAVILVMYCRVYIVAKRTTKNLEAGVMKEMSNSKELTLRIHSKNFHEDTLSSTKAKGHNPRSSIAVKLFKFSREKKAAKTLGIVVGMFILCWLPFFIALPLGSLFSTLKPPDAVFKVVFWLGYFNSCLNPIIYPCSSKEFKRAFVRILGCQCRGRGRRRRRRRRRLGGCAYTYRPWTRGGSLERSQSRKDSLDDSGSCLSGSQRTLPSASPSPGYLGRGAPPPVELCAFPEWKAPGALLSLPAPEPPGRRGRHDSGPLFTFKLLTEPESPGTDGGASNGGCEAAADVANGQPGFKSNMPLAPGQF

[3] = biological target: Serotonin 2 (5-HT2) receptor (Homo sapiens, UniProt P41595+P28223+P28335); assay: Binding affinity to 5HT2 receptor; type: protein assay
[4] = biological target: T2, Adrenergic receptor alpha-2 (Homo sapiens, UniProt P08913+P18825+P18089); assay: Binding affinity to adrenergic alpha-2 receptor; type: protein assay
T2 sequence (P08913 whole entry): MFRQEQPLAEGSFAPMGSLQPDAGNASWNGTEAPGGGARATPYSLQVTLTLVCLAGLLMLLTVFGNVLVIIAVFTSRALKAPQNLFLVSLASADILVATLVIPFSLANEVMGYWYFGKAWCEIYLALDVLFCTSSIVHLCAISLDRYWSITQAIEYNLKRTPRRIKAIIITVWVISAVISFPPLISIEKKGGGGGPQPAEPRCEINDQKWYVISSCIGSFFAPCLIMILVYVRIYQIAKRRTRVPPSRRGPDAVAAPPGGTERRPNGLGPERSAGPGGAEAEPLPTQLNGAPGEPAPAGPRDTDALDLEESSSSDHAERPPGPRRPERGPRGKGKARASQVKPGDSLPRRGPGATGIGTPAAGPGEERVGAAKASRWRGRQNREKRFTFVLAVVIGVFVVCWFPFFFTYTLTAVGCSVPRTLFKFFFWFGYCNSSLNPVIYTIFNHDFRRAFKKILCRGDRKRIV
T2 sequence (P18825 whole entry): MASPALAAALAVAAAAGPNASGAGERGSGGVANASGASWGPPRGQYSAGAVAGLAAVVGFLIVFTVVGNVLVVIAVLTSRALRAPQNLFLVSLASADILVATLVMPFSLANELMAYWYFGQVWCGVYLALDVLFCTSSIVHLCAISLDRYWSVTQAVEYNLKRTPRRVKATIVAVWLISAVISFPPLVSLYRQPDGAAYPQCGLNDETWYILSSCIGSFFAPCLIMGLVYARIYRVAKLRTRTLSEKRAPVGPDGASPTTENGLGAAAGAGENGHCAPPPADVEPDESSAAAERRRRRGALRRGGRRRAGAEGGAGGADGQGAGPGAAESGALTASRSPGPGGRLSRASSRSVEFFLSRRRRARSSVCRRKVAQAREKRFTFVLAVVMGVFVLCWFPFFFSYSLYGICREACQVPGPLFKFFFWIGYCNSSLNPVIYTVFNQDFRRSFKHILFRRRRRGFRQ
T2 sequence (P18089 whole entry): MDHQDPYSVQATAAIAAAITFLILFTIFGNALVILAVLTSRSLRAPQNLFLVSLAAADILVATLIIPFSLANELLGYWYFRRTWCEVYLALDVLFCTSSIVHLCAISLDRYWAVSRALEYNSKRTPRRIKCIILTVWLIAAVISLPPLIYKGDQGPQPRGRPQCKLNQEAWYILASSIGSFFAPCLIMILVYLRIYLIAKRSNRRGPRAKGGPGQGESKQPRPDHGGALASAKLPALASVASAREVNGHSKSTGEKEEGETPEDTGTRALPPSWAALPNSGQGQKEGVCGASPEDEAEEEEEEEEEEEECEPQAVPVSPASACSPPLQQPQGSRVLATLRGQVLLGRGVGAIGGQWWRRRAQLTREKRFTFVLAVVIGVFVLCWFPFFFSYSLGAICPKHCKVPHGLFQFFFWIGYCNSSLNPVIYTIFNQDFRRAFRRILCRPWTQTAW

[5] = biological target: 5-hydroxytryptamine receptor 4 (Cavia porcellus, UniProt O70528); assay: Displacement of [3H]GR-113808 from 5HT4 receptor in guinea pig striatum
[6] = biological target: D(2) dopamine receptor (Homo sapiens, UniProt P14416); assay: Binding affinity to dopamine receptor D2
Chain of D(2) dopamine receptor (P14416 whole entry): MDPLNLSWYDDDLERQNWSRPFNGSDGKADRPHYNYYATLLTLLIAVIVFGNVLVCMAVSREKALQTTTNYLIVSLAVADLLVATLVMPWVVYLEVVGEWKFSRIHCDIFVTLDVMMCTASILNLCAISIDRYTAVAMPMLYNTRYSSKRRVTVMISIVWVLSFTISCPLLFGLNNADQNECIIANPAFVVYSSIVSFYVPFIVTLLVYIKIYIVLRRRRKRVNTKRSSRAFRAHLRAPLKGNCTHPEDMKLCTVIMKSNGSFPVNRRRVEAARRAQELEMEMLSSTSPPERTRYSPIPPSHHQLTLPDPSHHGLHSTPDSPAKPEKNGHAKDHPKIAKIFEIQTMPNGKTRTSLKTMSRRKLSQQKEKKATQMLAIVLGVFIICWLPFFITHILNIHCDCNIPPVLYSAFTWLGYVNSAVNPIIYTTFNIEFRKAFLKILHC

Chain of 5-hydroxytryptamine receptor 4 (O70528 whole entry): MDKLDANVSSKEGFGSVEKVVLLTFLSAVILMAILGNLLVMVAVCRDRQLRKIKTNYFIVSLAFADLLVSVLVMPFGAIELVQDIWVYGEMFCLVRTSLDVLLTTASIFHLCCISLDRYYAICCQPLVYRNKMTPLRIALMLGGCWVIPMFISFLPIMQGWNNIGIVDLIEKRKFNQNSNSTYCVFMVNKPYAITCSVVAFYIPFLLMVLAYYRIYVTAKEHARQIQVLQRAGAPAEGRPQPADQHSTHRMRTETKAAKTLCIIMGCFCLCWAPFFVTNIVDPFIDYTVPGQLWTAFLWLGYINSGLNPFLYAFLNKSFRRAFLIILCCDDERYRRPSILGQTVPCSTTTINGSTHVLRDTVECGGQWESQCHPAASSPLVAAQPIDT

## O=C(NC[C@@H]1CCN2CCC[C@@H]12)c1cc(Cl)cn2ccnc12
[1]
  IC50: > 10 µM
[2]
  IC50: > 10 µM
[3]
  IC50: > 10 µM
[4]
  IC50: > 10 µM
[5]
  Ki: 0.0014 µM
[6]
  IC50: > 10 µM

## COc1cc(N)c(Cl)cc1C(=O)N[C@@H]1C2CC3CN(C2)CC31 (stereo partly specified)
[1]
  IC50: > 10 µM
[2]
  IC50: > 10 µM
[3]
  IC50: > 10 µM
[4]
  IC50: > 10 µM
[5]
  Ki: 0.029 µM
[6]
  IC50: > 10 µM

## O=C(OC[C@@H]1CCN2CCC[C@@H]12)c1[nH]nc2ccccc12 (single isomer, unassigned)
[1]
  IC50: > 10 µM
[2]
  IC50: > 10 µM
[3]
  IC50: > 10 µM
[4]
  IC50: > 10 µM
[5]
  Ki: 0.0008 µM
[6]
  IC50: > 10 µM

## COc1cc(N)c(Cl)cc1C(=O)NC[C@@H]1CCN2CCC[C@@H]12
[1]
  IC50: > 10 µM
[2]
  IC50: > 10 µM
[3]
  IC50: > 10 µM
[4]
  IC50: > 10 µM
[5]
  Ki: 0.0052 µM
[6]
  IC50: > 10 µM

## Cn1nc(C(=O)OC[C@@H]2CCN3CCC[C@@H]23)c2ccccc21 (single isomer, unassigned)
[1]
  IC50: > 10 µM
[2]
  IC50: > 10 µM
[3]
  IC50: > 10 µM
[4]
  IC50: > 10 µM
[5]
  Ki: 0.0004 µM
[6]
  IC50: > 10 µM

## O=C(OC[C@@H]1CCN2CCC[C@@H]12)c1c[nH]c2ccccc12
[1]
  IC50: > 10 µM
[2]
  IC50: > 10 µM
[3]
  IC50: > 10 µM
[4]
  IC50: > 10 µM
[5]
  Ki: 0.000183 µM
[6]
  IC50: > 10 µM
